# Reference: PubChem BioAssay AID1919016 (Molecular Pharmacology Branch, DTP, NCI, 2023)
# Test system: NCI-H196 complex spheroid growth, percent test/control
# Test: Anticancer human tumor NCI-H196 cell line growth inhibition [AhR];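 also: seven days of drug exposure starting three days after plating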;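 as to viability, T/C: 100% = DMSO vehicle control wells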
# Settings: for IC50: curve of first compound; for viability, T/C: stronger effect = lower value
# Method in brief: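 Spheroids combined tumor cells with HUVEC endothelial cells and human MSCs as stroma. AhR antagonists were paired with standard or investigational drugs, each dosed in half-log steps down from near clinical Cmax, or from 10 microM where Cmax was unknown.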
compound,measurement,setting,value
CC(C)CC(NC(=O)C(Cc1ccccc1)NC(=O)c1cnccn1)B(O)O (stereo not given) + Cc1ccccc1N=Nc1ccc(NC(=O)c2ccnn2C)c(C)c1,IC50,second compound 0.1 µM,14.4 nM
same,IC50,second compound 0.316 µM,15.6 nM
same,IC50,second compound 1 µM,15.8 nM
same,IC50,second compound 3.16 µM,15.9 nM
same,IC50,second compound 10 µM,16.8 nM
same,"viability, T/C","second compound 0.1 µM, first compound 0.000949 µM",97.6%
same,"viability, T/C","second compound 0.1 µM, first compound 0.003 µM",101%
same,"viability, T/C","second compound 0.1 µM, first compound 0.00949 µM",74.9%
same,"viability, T/C","second compound 0.1 µM, first compound 0.03 µM",6.41%
same,"viability, T/C","second compound 0.1 µM, first compound 0.0949 µM",4.21%
same,"viability, T/C","second compound 0.1 µM, first compound 0.3 µM",5.04%
same,"viability, T/C","second compound 0.316 µM, first compound 0.000949 µM",93.6%
same,"viability, T/C","second compound 0.316 µM, first compound 0.003 µM",96.4%
same,"viability, T/C","second compound 0.316 µM, first compound 0.00949 µM",83.1%
same,"viability, T/C","second compound 0.316 µM, first compound 0.03 µM",6.9%
same,"viability, T/C","second compound 0.316 µM, first compound 0.0949 µM",4.16%
same,"viability, T/C","second compound 0.316 µM, first compound 0.3 µM",3.98%
same,"viability, T/C","second compound 1 µM, first compound 0.000949 µM",90.8%
same,"viability, T/C","second compound 1 µM, first compound 0.003 µM",101%
same,"viability, T/C","second compound 1 µM, first compound 0.00949 µM",83%
same,"viability, T/C","second compound 1 µM, first compound 0.03 µM",8.93%
same,"viability, T/C","second compound 1 µM, first compound 0.0949 µM",4.78%
same,"viability, T/C","second compound 1 µM, first compound 0.3 µM",6.96%
same,"viability, T/C","second compound 3.16 µM, first compound 0.000949 µM",97.4%
same,"viability, T/C","second compound 3.16 µM, first compound 0.003 µM",95.8%
same,"viability, T/C","second compound 3.16 µM, first compound 0.00949 µM",83.8%
same,"viability, T/C","second compound 3.16 µM, first compound 0.03 µM",8.44%
same,"viability, T/C","second compound 3.16 µM, first compound 0.0949 µM",3.34%
same,"viability, T/C","second compound 3.16 µM, first compound 0.3 µM",3.4%
same,"viability, T/C","second compound 10 µM, first compound 0.000949 µM",89.2%
same,"viability, T/C","second compound 10 µM, first compound 0.003 µM",90.5%
same,"viability, T/C","second compound 10 µM, first compound 0.00949 µM",85.1%
same,"viability, T/C","second compound 10 µM, first compound 0.03 µM",14.6%
same,"viability, T/C","second compound 10 µM, first compound 0.0949 µM",8.98%
same,"viability, T/C","second compound 10 µM, first compound 0.3 µM",5.84%
